Laboratory results published in US20210378934A1, “HAIR CARE ACTIVE AGENT” (GIVAUDAN SA, priority 2018, published 2021).
Values after ≈ are worked out from the molar mass of the structure shown. Like-named read-outs stand apart in the source and are kept apart here. Each block holds one molecule with its values, some of them ahead of it.

What was measured:
[1] = system: co-culture of Normal Human Epidermal Keratinocytes (NHEKs) and Normal Human Melanocytes (NHMs); assay: Melanin production in NHK/NHM co-culture: comparison (Example 7); assay type: cell-based; details: 5 days; for effect on melanin synthesis / melanin content (in words): taxifolin glucoside 0.13 μg/mL alone, + N-acetyl tyrosine 15 μg/mL or + L-tyrosine 15 μg/mL
Source text: The aim of this study was to compare the effect of the hair care active agent of the present invention, which comprises taxifolin glucoside and N-acetyl tyrosine, with those of L-tyrosine (positive reference), of taxifolin glucoside, and of a mixture of taxifolin glucoside and L-tyrosine. The model used for this comparison was a co-culture of Normal Human Epidermal Keratinocytes (NHEKs) and Normal Human Melanocytes (NHMs).
The cell culture was realized with primary cells isolated from human skin biopsies.
Normal Human Keratinocytes (NHKs) were seeded at 60000 cells per well in 6-wells plates pre-coated with collagen I. 4 hours later, Normal Human Melanocytes (NHMs) were seeded at 60 000 cells per well in the same 6-wells plates. The cells were incubated for 48 hours in complete medium (EpiLife® supplemented with HKGS=Human Kerationcyte Growth Supplement).
After 48 hours of culture, the cells were stimulated for 5 days with the following compositions: • L-tyrosine at 450 μg/mL (Sigma) • Taxifolin glucoside at 0.13 μg/mL • Taxifolin glucoside at 0.13 μg/mL+N-acetyl tyrosine at 15 μg/mL (similar to Example 1) • Taxifolin glucoside at 0.13 μg/mL+L-tyrosine at 15 μg/mL (Sigma)
The compositions were diluted in a basal medium without supplements (EpiLife®). Every 2 days, the treatments were renewed.
After 5 days of treatment, cells were rinsed off with PBS. Then, in each well, 200 μL of a 0.5N NaOH solution was added. The cell lysates were collected in 1.5 mL microtubes with secure caps. In parallel, a standard range of melanin was prepared (1000 μg/mL). Microtubes of samples and standard range were heated for 1 hour at 80° C. in a dry bath. After the heating, 100 μL of each sample was transferred to a 96-wells plate.
Optical density was measured at 405 nm to determine the melanin content. […]
If it was not significant, the data was evaluated with statistical parametric tests (ANOVA followed by Dunnett's multiple comparisons test).
If it was significant, the data was evaluated with statistical non parametric tests (ANOVA of Kruskall-Wallis followed by a Mann-Whitney U test).

[2] = Solubility; assay type: physicochemical
[3] = system: melanogenesis; details: Sang Mi An et al. Phytother. Res. 22, 1200-1207 (2008); cited from earlier work
[4] = system: melanocytes and melanoblasts in Anagen VI human hair follicles; assay: NKI/beteb melanocyte quantification in micro-dissected hair follicles under oxidative stress (Example 5); assay type: cell-based; details: cumene hydroperoxide oxidative stress
Protocol: Anagen VI human hair follicles (HFs) were dissected from the scalp (Donor). The HFs used were selected after 18 hours of pre-culture. The following parameters were evaluated in the selection procedure: growth rate (>0.18 mm/18 hours), morphology (no signs of dystrophy).
Starting from day 1, after the selection at day 0, the test compounds were dissolved in the culture medium and the HFs were cultured up to planned endpoints. Twelve hair follicles were used per treatment for each read out parameter. The culture medium was renewed every other day.
Total melanocytes quantification was obtained following NKI/beteb-DAPI double immunostaining of the cryo-sections. NKI/beteb antibody (#MON7006-1 by Monosan) recognizes a (pre-) melanosomal antigen present in all melanocytes (i.e. both active melanocytes and melanoblasts).
On the immunostained sections, image analysis was performed in order to quantify the number of NKI-beteb positive cells within each hair follicle. The obtained value was normalized relative to the total number of cells of the considered area.
Image analysis was performed using ImageJ software (NIH, USA).
All quantitative data was summarized in terms of the mean score, standard deviation and standard error of the mean for each treatment.
Differences between groups were evaluated by One-way ANOVA with permutation test followed by Tukey and t-test with permutation.

[5] = system: Anagen VI human hair follicles; assay: ROS evaluation (DCFH-DA) in micro-dissected hair follicles under cumene hydroperoxide stress (Example 5); assay type: cell-based; details: 50 μM cumene hydroperoxide, 1 hour (oxidative stimulus)
Protocol: After the selection, the HFs were incubated for 1 hour with the standard solution from Example 1 dissolved in William's E medium. Afterwards, the HFs were cultured for 30 min in the presence of dichlorofluoerescein diacetate (DCFH-DA), a probe that reacts with ROS to become fluorescent. […] At the end of the experimental phase, the HFs were harvested, cryo-fixed and cut at the cryo-micro-tome for consequent image acquisition and image analysis of fluorescence within the sections. A slide for each HF was processed by image acquisition and related analysis (i.e. 12 images for each treatment). […]

Molecule: N[C@@H](Cc1ccc(O)cc1)C(=O)O [L-tyrosine]
- melanin content / synthesis of melanin, change compared to the untreated condition ([1]; L-tyrosine 450 μg/mL, taxifolin glucoside 0.13 μg/mL + N-acetyl tyrosine 15 μg/mL, p<0.001): +35%

- solubility ([2]; water with taxifolin glucoside, aqueous with cosolvent or surfactant or cyclodextrin, suitable amounts of taxifolin glucoside, molar ratio about 1:1, read-out: solubility of taxifolin in water in the presence of taxifolin glucoside): ≥ 20000 µg/mL
- solubility ([2]; water, typical, read-out: solubility of taxifolin in water): ~1000 µg/mL (≈ 3.29 mM)
Molecule: O=C1c2c(O)cc(O)cc2O[C@H](c2ccc(O)c(O)c2)[C@H]1O [taxifolin]
- effect on melanogenesis (in words) [3]: inhibit melanogenesis

Molecule: Taxifolin glucoside
- effect on melanin synthesis / melanin content (in words) [1]: not able to induce synthesis of melanin
- effect on melanin synthesis / melanin content (in words) ([1]; listed as taxifolin glucoside): does not have any influence

Molecule: cumene hydroperoxide
- reduction of the number of melanocytes compared to the untreated condition [4]: 78%
- increase of ROS production compared to the untreated condition [5]: +256%
